Residues, ends and D or L forms follow the SMILES beside them.
Columns and labels:
Rattus norvegicus [1] = assay: Antidiuretic activity in intravenous antidiuretic assay in rats under ethanol anesthesia; type: functional, Urine
Rattus norvegicus [2] = species: Rattus norvegicus; assay: Effective dose for anti-vasopressor potency to reduce the response to 2x units of agonist to equal the response to 1x units; type: functional
Rattus norvegicus [3] = species: Rattus norvegicus; assay: In vitro anti-oxytocic potency was recorded in absence of Mg2+ in rat uteri; type: functional; settings: read-out: pA2 (converted)
Rattus norvegicus [4] = species: Rattus norvegicus; assay: In vitro anti-oxytocic potency was recorded in presence of 0.5 mM Mg2+ in rat uteri; type: functional; settings: read-out: pA2 (converted)
Rattus norvegicus [5] = assay: Compound evaluated in vivo and negative logarithm of effective dose divided by estimated volume of distribution (67 mL/kg) determined; type: ADME, organism-based; settings: read-out: pA2 (converted)

SMILES	Antidiuretic activity (Rattus norvegicus [1]) [U/mg]	Effective dose (Rattus norvegicus [2]) [nM/kg]	Kb (Rattus norvegicus [3]) [nM]	Kb (Rattus norvegicus [4]) [nM]	Kb (Rattus norvegicus [5]) [nM]
CCC1(CC)CC(=O)N[C@@H](Cc2ccc(O)cc2)C(=O)N[C@H](Cc2ccccc2)C(=O)N[C@@H](CCC(N)=O)C(=O)N[C@H](CC(N)=O)C(=O)N[C@@H](C(=O)N2CCC[C@H]2C(=O)N[C@H](CCCN=C(N)N)C(=O)NCC(N)=O)CSS1	0.06	0.81	112	200	11
NC(=O)CC[C@@H]1NC(=O)[C@H](Cc2ccccc2)NC(=O)[C@H](Cc2ccc(O)cc2)NC(=O)CC2(CCCCC2)SSC[C@@H](C(=O)N2CCC[C@H]2C(=O)N[C@@H](CCCN=C(N)N)C(=O)NCC(N)=O)NC(=O)[C@H](CC(N)=O)NC1=O [listing 1 of 2 here]	–	–	47.9	53.7	–
NC(=O)CC[C@@H]1NC(=O)[C@H](Cc2ccccc2)NC(=O)[C@H](Cc2ccc(O)cc2)NC(=O)CC2(CCCCC2)SSC[C@@H](C(=O)N2CCC[C@H]2C(=O)N[C@@H](CCCN=C(N)N)C(=O)NCC(N)=O)NC(=O)[C@H](CC(N)=O)NC1=O [listing 2 of 2 here]	–	0.34	–	–	–
NC(=O)CC[C@@H]1NC(=O)[C@H](Cc2ccccc2)NC(=O)[C@H](Cc2ccc(O)cc2)NC(=O)CC2(CCCCC2)SSC[C@@H](C(=O)N2CCC[C@H]2C(=O)N[C@H](CCCN=C(N)N)C(=O)NCC(N)=O)NC(=O)[C@H](CC(N)=O)NC1=O [listing 1 of 2 here]	–	–	107	257	3.02
NC(=O)CC[C@@H]1NC(=O)[C@H](Cc2ccccc2)NC(=O)[C@H](Cc2ccc(O)cc2)NC(=O)CC2(CCCCC2)SSC[C@@H](C(=O)N2CCC[C@H]2C(=O)N[C@H](CCCN=C(N)N)C(=O)NCC(N)=O)NC(=O)[C@H](CC(N)=O)NC1=O [listing 2 of 2 here]	0.31	0.2	–	–	–
CC(C)[C@@H]1NC(=O)[C@H](Cc2ccccc2)NC(=O)[C@H](Cc2ccc(O)cc2)NC(=O)CC(C)(C)SSC[C@@H](C(=O)N2CCC[C@H]2C(=O)N[C@H](CCCN=C(N)N)C(=O)NCC(N)=O)NC(=O)[C@H](CC(N)=O)NC1=O [listing 1 of 2 here]	–	–	–	75.9	–
CC(C)[C@@H]1NC(=O)[C@H](Cc2ccccc2)NC(=O)[C@H](Cc2ccc(O)cc2)NC(=O)CC(C)(C)SSC[C@@H](C(=O)N2CCC[C@H]2C(=O)N[C@H](CCCN=C(N)N)C(=O)NCC(N)=O)NC(=O)[C@H](CC(N)=O)NC1=O [listing 2 of 2 here]	123	1.1	–	–	–
CCC1(CC)CC(=O)N[C@@H](Cc2ccc(O)cc2)C(=O)N[C@H](Cc2ccccc2)C(=O)N[C@@H](C(C)C)C(=O)N[C@H](CC(N)=O)C(=O)N[C@@H](C(=O)N2CCC[C@H]2C(=O)N[C@@H](CCCN=C(N)N)C(=O)NCC(N)=O)CSS1	1.5	0.38	47.9	21.9	5.13
CC1(C)CC(=O)N[C@@H](Cc2ccc(O)cc2)C(=O)N[C@H](Cc2ccccc2)C(=O)N[C@@H](CCC(N)=O)C(=O)N[C@H](CC(N)=O)C(=O)N[C@@H](C(=O)N2CCC[C@H]2C(=O)N[C@H](CCCN=C(N)N)C(=O)NCC(N)=O)CSS1	5.8	2.5	13.5	195	35.5
CCC1(CC)CC(=O)N[C@@H](Cc2ccc(O)cc2)C(=O)N[C@H](Cc2ccccc2)C(=O)N[C@@H](C(C)C)C(=O)N[C@H](CC(N)=O)C(=O)N[C@@H](C(=O)N2CCC[C@H]2C(=O)N[C@H](CCCN=C(N)N)C(=O)NCC(N)=O)CSS1	0.71	0.35	51.3	61.7	6.61
CC1(C)CC(=O)N[C@@H](Cc2ccc(O)cc2)C(=O)N[C@@H](Cc2ccccc2)C(=O)N[C@@H](CCC(N)=O)C(=O)N[C@@H](CC(N)=O)C(=O)N[C@H](C(=O)N2CCC[C@H]2C(=O)N[C@@H](CCCN=C(N)N)C(=O)NCC(N)=O)CSS1 [listing 1 of 2 here]	–	–	–	1170	–
CC1(C)CC(=O)N[C@@H](Cc2ccc(O)cc2)C(=O)N[C@@H](Cc2ccccc2)C(=O)N[C@@H](CCC(N)=O)C(=O)N[C@@H](CC(N)=O)C(=O)N[C@H](C(=O)N2CCC[C@H]2C(=O)N[C@@H](CCCN=C(N)N)C(=O)NCC(N)=O)CSS1 [listing 2 of 2 here]	–	3.2	–	–	–
CCC1(CC)CC(=O)N[C@@H](Cc2ccc(O)cc2)C(=O)N[C@@H](Cc2ccccc2)C(=O)N[C@@H](CCC(N)=O)C(=O)N[C@@H](CC(N)=O)C(=O)N[C@H](C(=O)N2CCC[C@H]2C(=O)N[C@@H](CCCN=C(N)N)C(=O)NCC(N)=O)CSS1 [listing 1 of 2 here]	–	–	50.1	69.2	4.37
CCC1(CC)CC(=O)N[C@@H](Cc2ccc(O)cc2)C(=O)N[C@@H](Cc2ccccc2)C(=O)N[C@@H](CCC(N)=O)C(=O)N[C@@H](CC(N)=O)C(=O)N[C@H](C(=O)N2CCC[C@H]2C(=O)N[C@@H](CCCN=C(N)N)C(=O)NCC(N)=O)CSS1 [listing 2 of 2 here]	0.38	0.32	–	–	–
CC(C)[C@@H]1NC(=O)[C@@H](Cc2ccccc2)NC(=O)[C@H](Cc2ccc(O)cc2)NC(=O)CC(C)(C)SSC[C@H](C(=O)N2CCC[C@H]2C(=O)N[C@@H](CCCN=C(N)N)C(=O)NCC(N)=O)NC(=O)[C@@H](CC(N)=O)NC1=O	312	0.84	8.13	19.1	12
CC(C)[C@@H]1NC(=O)[C@H](Cc2ccccc2)NC(=O)[C@H](Cc2ccc(O)cc2)NC(=O)CC2(CCCCC2)SSC[C@@H](C(=O)N2CCC[C@H]2C(=O)N[C@@H](CCCN=C(N)N)C(=O)NCC(N)=O)NC(=O)[C@H](CC(N)=O)NC1=O (HELM PEPTIDE1{Y.F.V.N.C.P.R.G.[am]}|CHEM1{[O=C(CC1(S[*:2])CCCCC1)[*:1]]}$PEPTIDE1,CHEM1,1:R1-1:R1|PEPTIDE1,CHEM1,5:R3-1:R2$$$V2.0)	0.32	0.76	–	–	–
CC(C)[C@@H]1NC(=O)[C@H](Cc2ccccc2)NC(=O)[C@H](Cc2ccc(O)cc2)NC(=O)CC2(CCCCC2)SSC[C@@H](C(=O)N2CCC[C@H]2C(=O)N[C@H](CCCN=C(N)N)C(=O)NCC(N)=O)NC(=O)[C@H](CC(N)=O)NC1=O (HELM PEPTIDE1{Y.F.V.N.C.P.[dR].G.[am]}|CHEM1{[O=C(CC1(S[*:2])CCCCC1)[*:1]]}$PEPTIDE1,CHEM1,1:R1-1:R1|PEPTIDE1,CHEM1,5:R3-1:R2$$$V2.0) [listing 1 of 2 here]	–	–	234	589	–
CC(C)[C@@H]1NC(=O)[C@H](Cc2ccccc2)NC(=O)[C@H](Cc2ccc(O)cc2)NC(=O)CC2(CCCCC2)SSC[C@@H](C(=O)N2CCC[C@H]2C(=O)N[C@H](CCCN=C(N)N)C(=O)NCC(N)=O)NC(=O)[C@H](CC(N)=O)NC1=O (HELM PEPTIDE1{Y.F.V.N.C.P.[dR].G.[am]}|CHEM1{[O=C(CC1(S[*:2])CCCCC1)[*:1]]}$PEPTIDE1,CHEM1,1:R1-1:R1|PEPTIDE1,CHEM1,5:R3-1:R2$$$V2.0) [listing 2 of 2 here]	–	1.5	–	–	–

Reference: ChEMBL document CHEMBL1122193, “Design of potent and selective antagonists of the vasopressor responses to arginine-vasopressin” (J Med Chem, 1982)
